“Also recorded” adds a separate entry of the source.

These results are taken from patent WO2007026771A1, “点滴用注射剤” (Ono Pharmaceutical Co Ltd, priority 2005, dated 2007).

Data set [1] deals with poly(ADP-ribose) polymerase (PARP) [ポリ(ADP−リボース)ポリメラーゼ] (Homo sapiens, UniProt P09874). The following applies: cited from earlier work.
Data set [2] is described as follows: pH of supernatant of aqueous suspension of compound A. The data set is classed as physicochemical.
Data set [3] is described as follows: Solubility of compound A in water at various pH values (5℃, 24 h, HPLC). The class given is physicochemical.
The nature of data set [4]: Toxicity of compound A.

poly(ADP-ribose) polymerase (PARP) [ポリ(ADP−リボース)ポリメラーゼ], sequence (P09874 whole entry): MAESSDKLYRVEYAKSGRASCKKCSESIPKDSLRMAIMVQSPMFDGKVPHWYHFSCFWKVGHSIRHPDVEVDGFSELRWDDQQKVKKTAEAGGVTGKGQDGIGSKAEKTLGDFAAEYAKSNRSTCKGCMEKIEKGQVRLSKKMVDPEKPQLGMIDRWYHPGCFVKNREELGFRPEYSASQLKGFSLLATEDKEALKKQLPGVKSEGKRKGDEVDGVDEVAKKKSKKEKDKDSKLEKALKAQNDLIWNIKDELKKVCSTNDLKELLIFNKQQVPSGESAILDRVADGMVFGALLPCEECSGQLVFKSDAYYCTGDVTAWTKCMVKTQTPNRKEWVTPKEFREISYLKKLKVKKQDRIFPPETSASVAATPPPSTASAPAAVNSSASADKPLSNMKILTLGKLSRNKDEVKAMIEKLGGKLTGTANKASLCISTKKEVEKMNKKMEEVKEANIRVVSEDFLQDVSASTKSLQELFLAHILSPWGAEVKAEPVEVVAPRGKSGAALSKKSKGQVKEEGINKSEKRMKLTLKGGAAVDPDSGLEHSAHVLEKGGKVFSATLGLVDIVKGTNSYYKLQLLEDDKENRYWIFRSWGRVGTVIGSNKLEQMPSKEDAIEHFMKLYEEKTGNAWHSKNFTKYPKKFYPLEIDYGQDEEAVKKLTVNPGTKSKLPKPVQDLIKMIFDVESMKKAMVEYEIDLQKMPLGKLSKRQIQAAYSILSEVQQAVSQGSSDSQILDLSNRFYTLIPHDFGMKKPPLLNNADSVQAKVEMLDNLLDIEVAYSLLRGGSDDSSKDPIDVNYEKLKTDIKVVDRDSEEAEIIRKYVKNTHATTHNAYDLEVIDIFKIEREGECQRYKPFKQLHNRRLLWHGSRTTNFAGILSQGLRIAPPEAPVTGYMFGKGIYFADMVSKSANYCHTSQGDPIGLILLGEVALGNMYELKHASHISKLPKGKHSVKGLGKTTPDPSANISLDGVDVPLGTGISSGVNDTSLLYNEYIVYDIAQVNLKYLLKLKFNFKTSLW

Regarding `O=C(Cc1n[nH]c(=O)c2c1CCCC2)NCCCCN1CCOCC1` [化合物A, 4−(N−(4−(モルホリン−4−イル)ブチル)カルバモイルメチル)−5,6,7,8−テトラヒドロフタラジン−1(2H)−オン], the PARP inhibitory activity entry in data set [1] is reported as “阻害活性を有する; also recorded: PARP阻害活性を有する”. In addition, the “pH of supernatant of aqueous suspension” value in data set [2] was around 9.4. The values for the dissolution in water result in data set [3] (near neutral (e.g. pH 6 or above)) and in data set [3] (pH about 5 or below) were “速やかに水に溶解せず” and “速やかに水に溶解する”, respectively. Further, the solubility in water result in data set [3] (pH 8 or above) is reported as “低い”; in data set [3] (pH about 7 or below (adjusted)) it was “著しく上昇; also recorded: 著しく向上”; in data set [3] (water), “極めて低く”. Moreover, in data set [4], the toxicity entry is reported as “非常に低い”.
